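These data come from cells grown in 96-well plates and exposed to compound for 48 hours at five concentrations. GI50 is the concentration that inhibits growth by half. TGI marks complete inhibition of growth.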
Experiments:
Assay in all cases: NCI tumour cell line growth inhibition, 48 h
786-0 renal = system: 786-0 renal
A498 renal = system: A498 renal
A549 NSCLC = system: A549 NSCLC
ACHN renal = system: ACHN renal
CAKI-1 renal = system: CAKI-1 renal
CCRF-CEM leukemia = system: CCRF-CEM leukemia
DLD-1 colon = system: DLD-1 colon
DMS 114 small cell lung = system: DMS 114 small cell lung
DMS 273 small cell lung = system: DMS 273 small cell lung
EKVX NSCLC = system: EKVX NSCLC
HCC-2998 colon = system: HCC-2998 colon
HCT-116 colon = system: HCT-116 colon
HCT-15 colon = system: HCT-15 colon
HL-60(TB) leukemia = system: HL-60(TB) leukemia
HOP-18 NSCLC = system: HOP-18 NSCLC
HOP-62 NSCLC = system: HOP-62 NSCLC
HOP-92 NSCLC = system: HOP-92 NSCLC
HT29 colon = system: HT29 colon
IGROV1 ovarian = system: IGROV1 ovarian
K-562 leukemia = system: K-562 leukemia
KM12 colon = system: KM12 colon
KM20L2 colon = system: KM20L2 colon
LOX IMVI melanoma = system: LOX IMVI melanoma
LXFL 529 NSCLC = system: LXFL 529 NSCLC
M14 melanoma = system: M14 melanoma
M19-MEL melanoma = system: M19-MEL melanoma
MALME-3M melanoma = system: MALME-3M melanoma
MOLT-4 leukemia = system: MOLT-4 leukemia
NCI-H226 lung = system: NCI-H226 lung
NCI-H23 lung = system: NCI-H23 lung
NCI-H460 lung = system: NCI-H460 lung
NCI-H522 lung = system: NCI-H522 lung
OVCAR-3 ovarian = system: OVCAR-3 ovarian
OVCAR-4 ovarian = system: OVCAR-4 ovarian
OVCAR-5 ovarian = system: OVCAR-5 ovarian
OVCAR-8 ovarian = system: OVCAR-8 ovarian
RPMI-8226 leukemia = system: RPMI-8226 leukemia
RXF 393 renal = system: RXF 393 renal
RXF-631 renal = system: RXF-631 renal
SF-295 CNS = system: SF-295 CNS
SF-539 CNS = system: SF-539 CNS
SK-MEL-2 melanoma = system: SK-MEL-2 melanoma
SK-MEL-28 melanoma = system: SK-MEL-28 melanoma
SK-MEL-5 melanoma = system: SK-MEL-5 melanoma
SK-OV-3 ovarian = system: SK-OV-3 ovarian
SN12C renal = system: SN12C renal
SNB-19 CNS = system: SNB-19 CNS
SNB-75 CNS = system: SNB-75 CNS
SNB-78 CNS = system: SNB-78 CNS
SR leukemia = system: SR leukemia
SW-620 colon = system: SW-620 colon
TK-10 renal = system: TK-10 renal
U251 CNS = system: U251 CNS
UACC-257 melanoma = system: UACC-257 melanoma
UACC-62 melanoma = system: UACC-62 melanoma
UO-31 renal = system: UO-31 renal
XF 498 CNS = system: XF 498 CNS

Compound CC1=Nc2c(ccc3c2C(=O)c2ccccc2C3=O)NC(c2ccncc2)C1 (configuration not stated) has a GI50 (786-0 renal) greater than 100 µM, a TGI (786-0 renal) greater than 100 µM and a TGI (A498 renal) greater than 100 µM. It also gave a TGI (A549 NSCLC) greater than 100 µM, a GI50 (ACHN renal) of 23.5 µM and a TGI (ACHN renal) greater than 100 µM. It also gave a GI50 (CAKI-1 renal) of 3.77 µM, a TGI (CAKI-1 renal) greater than 100 µM and a TGI (CCRF-CEM leukemia) greater than 100 µM. The TGI (DLD-1 colon) was greater than 100 µM, the TGI (DMS 114 small cell lung) was greater than 100 µM and the GI50 (DMS 273 small cell lung) was greater than 100 µM. The TGI (DMS 273 small cell lung) was greater than 100 µM, the GI50 (EKVX NSCLC) was greater than 100 µM and the TGI (EKVX NSCLC) was greater than 100 µM. The GI50 (HCC-2998 colon) was greater than 100 µM, the TGI (HCC-2998 colon) was greater than 100 µM and the TGI (HCT-116 colon) was greater than 100 µM. It also gave a TGI (HCT-15 colon) greater than 100 µM, a TGI (HL-60(TB) leukemia) greater than 100 µM and a GI50 (HOP-18 NSCLC) greater than 100 µM. It also gave a TGI (HOP-18 NSCLC) greater than 100 µM, a TGI (HOP-62 NSCLC) greater than 100 µM and a GI50 (HOP-92 NSCLC) greater than 100 µM. For the same compound, the TGI (HOP-92 NSCLC) was greater than 100 µM, the GI50 (HT29 colon) was greater than 100 µM and the TGI (HT29 colon) was greater than 100 µM. For the same compound, the TGI (IGROV1 ovarian) was greater than 100 µM, the TGI (K-562 leukemia) was greater than 100 µM and the TGI (KM12 colon) was greater than 100 µM. The GI50 (KM20L2 colon) was greater than 100 µM, the TGI (KM20L2 colon) was greater than 100 µM and the TGI (LOX IMVI melanoma) was greater than 100 µM. For the same compound, the GI50 (LXFL 529 NSCLC) was greater than 100 µM, the TGI (LXFL 529 NSCLC) was greater than 100 µM and the GI50 (M14 melanoma) was greater than 100 µM. The TGI (M14 melanoma) was greater than 100 µM, the GI50 (M19-MEL melanoma) was greater than 100 µM and the TGI (M19-MEL melanoma) was greater than 100 µM. The GI50 (MALME-3M melanoma) was greater than 100 µM, the TGI (MALME-3M melanoma) was greater than 100 µM and the TGI (MOLT-4 leukemia) was greater than 100 µM. The GI50 (NCI-H226 lung) was greater than 100 µM, the TGI (NCI-H226 lung) was greater than 100 µM and the GI50 (NCI-H23 lung) was greater than 100 µM. The TGI (NCI-H23 lung) was greater than 100 µM, the GI50 (NCI-H460 lung) was greater than 100 µM and the TGI (NCI-H460 lung) was greater than 100 µM. For the same compound, the TGI (NCI-H522 lung) was greater than 100 µM, the GI50 (OVCAR-3 ovarian) was greater than 100 µM and the TGI (OVCAR-3 ovarian) was greater than 100 µM. The GI50 (OVCAR-4 ovarian) was greater than 100 µM, the TGI (OVCAR-4 ovarian) was greater than 100 µM and the TGI (OVCAR-5 ovarian) was greater than 100 µM. The GI50 (OVCAR-8 ovarian) was greater than 100 µM, the TGI (OVCAR-8 ovarian) was greater than 100 µM and the GI50 (RPMI-8226 leukemia) was 89.9 µM. For the same compound, the TGI (RPMI-8226 leukemia) was greater than 100 µM, the GI50 (RXF 393 renal) was greater than 100 µM and the TGI (RXF 393 renal) was greater than 100 µM. It also gave a TGI (RXF-631 renal) greater than 100 µM, a GI50 (SF-295 CNS) greater than 100 µM and a TGI (SF-295 CNS) greater than 100 µM. For the same compound, the GI50 (SF-539 CNS) was greater than 100 µM, the TGI (SF-539 CNS) was greater than 100 µM and the GI50 (SK-MEL-2 melanoma) was greater than 100 µM. For the same compound, the TGI (SK-MEL-2 melanoma) was greater than 100 µM, the GI50 (SK-MEL-28 melanoma) was greater than 100 µM and the TGI (SK-MEL-28 melanoma) was greater than 100 µM. The TGI (SK-MEL-5 melanoma) was greater than 100 µM, the TGI (SK-OV-3 ovarian) was greater than 100 µM and the TGI (SN12C renal) was greater than 100 µM. The GI50 (SNB-19 CNS) was greater than 100 µM, the TGI (SNB-19 CNS) was greater than 100 µM and the TGI (SNB-75 CNS) was greater than 100 µM. It also gave a GI50 (SNB-78 CNS) greater than 100 µM, a TGI (SNB-78 CNS) greater than 100 µM and a GI50 (SR leukemia) greater than 100 µM. The TGI (SW-620 colon) was greater than 100 µM, the TGI (TK-10 renal) was greater than 100 µM and the GI50 (U251 CNS) was greater than 100 µM. For the same compound, the TGI (U251 CNS) was greater than 100 µM, the GI50 (UACC-257 melanoma) was greater than 100 µM and the TGI (UACC-257 melanoma) was greater than 100 µM. For the same compound, the TGI (UACC-62 melanoma) was greater than 100 µM, the TGI (UO-31 renal) was greater than 100 µM and the TGI (XF 498 CNS) was greater than 100 µM.
